Consider two compounds from patent publication US12686853B2, “Methods and compositions for treatment of muscle disease with iPSC-induced human skeletal muscle stem cells” (UNIVERSITY OF MASSACHUSETTS, priority 2020, dated 2026).

Common to all, as to type: cell-based, human
One assay relates to genome. The experiment in a line: Genome-wide methylome analysis using Illumina chip assays after 5-AzaC treatment. Conditions: data not shown.
The subject of assay [1] is DUX4. Description: 5-AzaC treatment of FSHD ESC iPMs. As to conditions: data not shown. How it is done:
iPMs were treated for 24 hr with a pulse of epigenetic drugs, followed by culturing for 7 days in iPM growth medium and 7 days of iPMC differentiation medium. The cultured iPMs were then subjected to qPCR analysis to determine the expression of MBD3L2 RNA (a DUX4 biomarker) and MYH8 RNA (a muscle differentiation marker data now shown). […] See, FIG. 11D. […] et al., (2015). […] See, FIG. 11D.

The subject of assay [2] is DUX4. Description: 24 hr 5-AzaC pulse of FSHD iPM (S2 cells), qPCR of MBD3L2 and MYH8 RNA. As to the method:
(§1) FIG. 11E: qPCR assays of the expression of DUX4 target gene (MBD3L2) RNA and a muscle gene (MYH8) RNA of S2 cells (top panel) and iMyoblasts (bottom panel) following 24 hr treatment with increasing doses of 5-AzaC. 5-AzaC-treated S2 cultures were cultured for 6 days of S2 growth medium (GM) and 7 days in S3 differentiation medium (DM). 5-AzaC-treated iMyoblasts were cultured for 6 days in myoblast growth medium (GM) and 4 days in Opti-MEM differentiation medium. qPCR data were normalized to RPL13A and relative expression is shown normalized to […].
To investigate epigenetic mechanisms responsible for DUX4 repression during reprogramming and iPM induction, a blinded screen was conducted to identify epigenetic drugs that activate DUX4 in FSHD iPM undergoing myogenesis.
iPMs were treated for 24 hr with a pulse of epigenetic drugs, followed by culturing for 7 days in iPM growth medium and 7 days of iPMC differentiation medium. The cultured iPMs were then subjected to qPCR analysis to determine the expression of MBD3L2 RNA (a DUX4 biomarker) and MYH8 RNA (a muscle differentiation marker data now shown). […] See, FIG. 11D. […]
For quantification of housekeeping genes, DUX4 biomarker or muscle differentiation marker expression, 20 ng of cDNA was used for each reaction. For quantification of DUX4 expression, 90-150 ng of cDNA was used in each reaction.
(In qPCR the cycle at which signal appears reflects the starting amount.)

The test system of assay [3] is DUX4. Description: 5-AzaC treatment of proliferating iMyoblasts, qPCR in myotubes. Conditions: lower concentrations. How it is done: as §1
iPMs were treated for 24 hr with a pulse of epigenetic drugs, followed by culturing for 7 days in iPM growth medium and 7 days of iPMC differentiation medium. The cultured iPMs were then subjected to qPCR analysis to determine the expression of MBD3L2 RNA (a DUX4 biomarker) and MYH8 RNA (a muscle differentiation marker data now shown). […] See, FIG. 11D. At high 5-AzaC concentrations, MYH8 RNA expression decreased. […] Rickard et al., (2015). […] See, FIG. 11D.
Ribonucleic acid (RNA) was isolated either from cells in culture or from xenoengrafted TA muscles using the RNeasy® Plus Mini Kit (Qiagen) or Aurum® Total RNA Fatty and Fibrous Tissue kit (Bio-Rad) respectively per the manufacturer's specifications. […]

For another assay, the system named is DUX4 target gene. Description: Losmapimod treatment of FSHD1 iMyotubes, NanoString digital RNA assays. Conditions: Pre- or Post-differentiation treatment with Losmapimod, N2 medium. More on the design: dose or concentration left out as unconfirmed. An excerpt: FIG. 21A: Schematic of Losmapimod treatment protocols for Pre-drug administration at the initiation of iMyotube differentiation and at Post iMyotube differentiation after 4 days in N2 differentiation medium. FIG. 21B: NanoString digital RNA assays of DUX4 target gene and muscle gene expression in carrier treated (UT) FSHID1 iMyoblasts and in iMyotube cultures Pre- or Post-differentiation treatment with […] Losmapimod. Normalized counts of expression are presented on linear scale with each dot corresponding to an individual culture. Data are presented as mean±SEM for each condition. For NanoString RNA quantification, 50 ng or 150 ng of total RNA was used for cell culture and xenografted TA muscle, respectively. A muscle NanoString panel was constructed with human specific probes for muscle protein genes, muscle master regulatory genes, developmental transcription factors, signaling genes and multiple housekeeping genes and used for all analysis on an nCounter SprintR profiler (NanoString Technologies, Seattle, WA). Raw mRNA counts were normalized to a series of housekeeping genes (e.g., RPL13A, GAPDH, GUUSB, and VCP) using nSolverR software (NanoString Technologies, Seattle, WA).

Entries after “also recorded” stand apart in the source; their conditions may differ.

For `Nc1ncn([C@@H]2O[C@H](CO)[C@@H](O)[C@H]2O)c(=O)n1` [5-AzaC, 5-azacytidine], in the assay on genome, the “demethylation, genome-wide methylome analysis” value was “selective demethylation of many sequences throughout the genome”. Also, the DUX4 expression entry in the assay on DUX4 [1] was “high levels of DUX4 expression”. Further, in the assay on DUX4 [2] (24 hr pulse, then 7 days iPM growth medium and 7 days iPMC differentiation medium, qPCR), the “DUX4 expression, as assayed by MBD3L2 RNA biomarker expression” value is “effectively increased DUX4 expression in a concentration dependent manner; also recorded: can be reversed”. Also, the “MYH8 RNA expression” value in the assay on DUX4 [2] (high 5-AzaC concentrations) was “decreased”. In addition, in the assay on DUX4 [3], the “DUX4 biomarker expression in myotubes” value is “only a small increase”.
Regarding `Cc1c(F)cc(C(=O)NC2CC2)cc1-c1ccc(C(=O)NCC(C)(C)C)cn1` [Losmapimod], the “DUX4 target gene expression” value with DUX4 target gene is recorded as “decreases; also recorded: inhibited”.
